Data as given in ChEMBL document CHEMBL4507329, “Data for DCP probe BTZO-1” (2021).

Legend:
[1] = system: Tyrosine-protein kinase ABL1 (Homo sapiens), P00519 [F317L]; details: Compound concentration 1000.0 nM
[2] = system: Tyrosine-protein kinase ABL1 (Homo sapiens), P00519 [Q252H]; details: Compound concentration 1000.0 nM
[3] = biological target: Mitogen-activated protein kinase kinase kinase 6 (Homo sapiens) (UniProt O95382); details: Compound concentration 1000.0 nM
[4] = biological target: Aurora kinase B (Homo sapiens) (UniProt Q96GD4); details: Compound concentration 1000.0 nM
[5] = biological target: Bone morphogenetic protein receptor type-2 (Homo sapiens) (UniProt Q13873); details: Compound concentration 1000.0 nM
[6] = biological target: Calcium/calmodulin-dependent protein kinase type 1 (Homo sapiens) (UniProt Q14012); details: Compound concentration 1000.0 nM
[7] = biological target: Calcium/calmodulin-dependent protein kinase kinase 2 (Homo sapiens) (UniProt Q96RR4); details: Compound concentration 1000.0 nM
[8] = biological target: Peripheral plasma membrane protein CASK (Homo sapiens) (UniProt O14936); details: Compound concentration 1000.0 nM
[9] = biological target: Cyclin-dependent kinase 4 (Homo sapiens) (UniProt P11802); details: Compound concentration 1000.0 nM
[10] = biological target: Cyclin-dependent kinase-like 3 (Homo sapiens) (UniProt Q8IVW4); details: Compound concentration 1000.0 nM
[11] = biological target: Cyclin-dependent kinase-like 5 (Homo sapiens) (UniProt O76039); details: Compound concentration 1000.0 nM
[12] = biological target: Casein kinase I isoform alpha (Homo sapiens) (UniProt P48729); details: Compound concentration 1000.0 nM
[13] = biological target: Casein kinase I isoform epsilon (Homo sapiens) (UniProt P49674); details: Compound concentration 1000.0 nM
[14] = biological target: Casein kinase II subunit alpha' (Homo sapiens) (UniProt P19784); details: Compound concentration 1000.0 nM
Chain of Casein kinase II subunit alpha' (Homo sapiens) (P19784 whole entry, looked up): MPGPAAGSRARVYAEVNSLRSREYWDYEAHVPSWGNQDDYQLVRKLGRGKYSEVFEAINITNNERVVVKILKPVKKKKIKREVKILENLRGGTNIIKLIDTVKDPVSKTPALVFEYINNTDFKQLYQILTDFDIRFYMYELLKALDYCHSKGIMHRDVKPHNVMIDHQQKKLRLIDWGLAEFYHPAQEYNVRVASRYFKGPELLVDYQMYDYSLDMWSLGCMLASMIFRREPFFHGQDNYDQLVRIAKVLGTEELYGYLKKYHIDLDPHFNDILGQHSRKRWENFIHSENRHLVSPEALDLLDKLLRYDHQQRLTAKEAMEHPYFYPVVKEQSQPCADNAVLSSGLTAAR

[15] = biological target: Serine/threonine-protein kinase MRCK gamma (Homo sapiens) (UniProt Q6DT37); details: Compound concentration 1000.0 nM
[16] = biological target: Serine/threonine-protein kinase 17A (Homo sapiens) (UniProt Q9UEE5); details: Compound concentration 1000.0 nM
Chain of Serine/threonine-protein kinase 17A (Homo sapiens) (Q9UEE5 whole entry): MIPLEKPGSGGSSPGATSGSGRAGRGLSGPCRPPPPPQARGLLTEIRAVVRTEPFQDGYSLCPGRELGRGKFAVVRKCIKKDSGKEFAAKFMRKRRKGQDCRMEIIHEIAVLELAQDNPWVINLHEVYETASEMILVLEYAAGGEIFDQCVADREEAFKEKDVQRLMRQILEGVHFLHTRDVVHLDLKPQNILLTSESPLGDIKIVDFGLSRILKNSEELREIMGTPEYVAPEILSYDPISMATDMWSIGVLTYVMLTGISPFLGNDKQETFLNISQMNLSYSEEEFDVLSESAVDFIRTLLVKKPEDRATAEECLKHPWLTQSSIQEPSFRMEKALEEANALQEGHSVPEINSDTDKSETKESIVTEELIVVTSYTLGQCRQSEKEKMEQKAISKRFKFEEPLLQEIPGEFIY

[17] = system: Epidermal growth factor receptor (Homo sapiens), P00533 [UNDEFINED MUTATION]; details: Compound concentration 1000.0 nM
Chain of Epidermal growth factor receptor (Homo sapiens), P00533 [UNDEFINED MUTATION] (P00533 whole entry, looked up, change not shown): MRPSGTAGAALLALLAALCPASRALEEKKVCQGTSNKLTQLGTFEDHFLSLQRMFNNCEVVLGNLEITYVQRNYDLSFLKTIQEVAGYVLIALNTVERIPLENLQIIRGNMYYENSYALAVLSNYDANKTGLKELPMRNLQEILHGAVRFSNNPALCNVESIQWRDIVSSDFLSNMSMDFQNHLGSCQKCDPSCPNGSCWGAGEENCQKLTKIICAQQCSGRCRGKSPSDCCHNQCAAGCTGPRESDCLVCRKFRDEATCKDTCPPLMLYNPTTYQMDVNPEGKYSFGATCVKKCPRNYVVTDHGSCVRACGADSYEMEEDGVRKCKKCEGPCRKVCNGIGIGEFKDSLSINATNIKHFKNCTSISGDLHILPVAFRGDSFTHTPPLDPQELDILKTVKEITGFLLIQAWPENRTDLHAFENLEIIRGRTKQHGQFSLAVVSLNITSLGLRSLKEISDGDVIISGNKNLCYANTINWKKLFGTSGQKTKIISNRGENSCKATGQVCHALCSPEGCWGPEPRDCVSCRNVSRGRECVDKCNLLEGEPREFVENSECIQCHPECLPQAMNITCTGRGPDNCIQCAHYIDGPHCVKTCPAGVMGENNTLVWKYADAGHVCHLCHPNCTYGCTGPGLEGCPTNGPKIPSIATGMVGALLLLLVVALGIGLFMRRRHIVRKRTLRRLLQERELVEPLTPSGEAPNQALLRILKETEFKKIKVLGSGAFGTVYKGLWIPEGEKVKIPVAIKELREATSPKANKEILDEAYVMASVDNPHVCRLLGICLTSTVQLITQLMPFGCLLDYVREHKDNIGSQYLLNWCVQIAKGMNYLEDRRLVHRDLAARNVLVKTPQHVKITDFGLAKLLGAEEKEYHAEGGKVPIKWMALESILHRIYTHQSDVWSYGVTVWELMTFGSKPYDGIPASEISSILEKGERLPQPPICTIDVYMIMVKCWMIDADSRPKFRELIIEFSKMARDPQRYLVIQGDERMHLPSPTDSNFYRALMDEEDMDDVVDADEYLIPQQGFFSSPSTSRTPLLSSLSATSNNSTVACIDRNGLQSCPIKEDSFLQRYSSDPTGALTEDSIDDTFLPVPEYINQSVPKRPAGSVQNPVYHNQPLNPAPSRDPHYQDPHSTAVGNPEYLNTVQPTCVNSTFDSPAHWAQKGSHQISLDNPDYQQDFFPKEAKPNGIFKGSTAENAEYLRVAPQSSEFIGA

[18] = system: Epidermal growth factor receptor (Homo sapiens), P00533 [UNDEFINED MUTATION]; details: Compound concentration 1000.0 nM; remark: listed apart in the source
[19] = biological target: Ephrin type-A receptor 5 (Homo sapiens) (UniProt P54756); details: Compound concentration 1000.0 nM
[20] = biological target: Mitogen-activated protein kinase 4 (Homo sapiens) (UniProt P31152); details: Compound concentration 1000.0 nM
[21] = system: Receptor-type tyrosine-protein kinase FLT3 (Homo sapiens), P36888 [UNDEFINED MUTATION]; details: Compound concentration 1000.0 nM
[22] = system: Receptor-type tyrosine-protein kinase FLT3 (Homo sapiens), P36888 [R834Q]; details: Compound concentration 1000.0 nM
[23] = biological target: Cyclin-G-associated kinase (Homo sapiens) (UniProt O14976); details: Compound concentration 1000.0 nM
[24] = system: Mast/stem cell growth factor receptor Kit (Homo sapiens), P10721 [L576P]; details: Compound concentration 1000.0 nM
[25] = biological target: MAP/microtubule affinity-regulating kinase 4 (Homo sapiens) (UniProt Q96L34); details: Compound concentration 1000.0 nM
[26] = system: Hepatocyte growth factor receptor (Homo sapiens), P08581 [M1250T]; details: Compound concentration 1000.0 nM
[27] = system: Hepatocyte growth factor receptor (Homo sapiens), P08581 [Y1235D]; details: Compound concentration 1000.0 nM
[28] = biological target: Myosin light chain kinase 2, skeletal/cardiac muscle (Homo sapiens) (UniProt Q9H1R3); details: Compound concentration 1000.0 nM
Chain of Myosin light chain kinase 2, skeletal/cardiac muscle (Homo sapiens) (Q9H1R3 whole entry): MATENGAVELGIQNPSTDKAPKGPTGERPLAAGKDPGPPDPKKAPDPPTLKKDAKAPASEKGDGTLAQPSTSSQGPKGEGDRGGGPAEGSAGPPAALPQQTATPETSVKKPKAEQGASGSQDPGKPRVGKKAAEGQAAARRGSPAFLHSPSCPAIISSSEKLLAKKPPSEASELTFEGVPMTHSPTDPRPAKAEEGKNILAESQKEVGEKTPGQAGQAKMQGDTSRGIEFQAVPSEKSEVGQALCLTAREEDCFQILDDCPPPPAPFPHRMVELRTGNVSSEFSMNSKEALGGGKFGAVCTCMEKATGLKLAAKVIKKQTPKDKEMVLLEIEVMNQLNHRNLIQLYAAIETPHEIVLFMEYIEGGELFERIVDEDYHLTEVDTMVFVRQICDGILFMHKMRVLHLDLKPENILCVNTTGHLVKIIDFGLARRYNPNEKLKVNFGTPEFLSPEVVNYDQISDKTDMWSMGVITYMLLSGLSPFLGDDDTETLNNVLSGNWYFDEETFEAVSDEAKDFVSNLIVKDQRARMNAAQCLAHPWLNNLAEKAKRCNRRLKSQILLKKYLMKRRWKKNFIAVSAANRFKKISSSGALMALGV

[29] = biological target: Serine/threonine-protein kinase 38-like (Homo sapiens) (UniProt Q9Y2H1); details: Compound concentration 1000.0 nM
Chain of Serine/threonine-protein kinase 38-like (Homo sapiens) (Q9Y2H1 2-464 limits assumed): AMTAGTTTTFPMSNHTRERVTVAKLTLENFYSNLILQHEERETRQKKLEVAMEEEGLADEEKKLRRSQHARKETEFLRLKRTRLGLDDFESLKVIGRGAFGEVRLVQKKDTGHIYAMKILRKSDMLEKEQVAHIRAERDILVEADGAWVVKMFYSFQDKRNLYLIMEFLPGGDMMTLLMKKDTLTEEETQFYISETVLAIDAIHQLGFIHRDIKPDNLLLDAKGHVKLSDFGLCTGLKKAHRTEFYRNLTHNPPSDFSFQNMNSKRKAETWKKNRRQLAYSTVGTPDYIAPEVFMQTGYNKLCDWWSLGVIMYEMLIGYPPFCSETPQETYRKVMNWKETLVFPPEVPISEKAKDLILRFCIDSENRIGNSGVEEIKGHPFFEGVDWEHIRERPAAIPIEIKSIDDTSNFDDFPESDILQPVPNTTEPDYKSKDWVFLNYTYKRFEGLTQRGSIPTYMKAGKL

[30] = biological target: Serine/threonine-protein kinase Nek10 (Homo sapiens) (UniProt Q6ZWH5); details: Compound concentration 1000.0 nM
[31] = biological target: Serine/threonine-protein kinase Nek5 (Homo sapiens) (UniProt Q6P3R8); details: Compound concentration 1000.0 nM
Chain of Serine/threonine-protein kinase Nek5 (Homo sapiens) (Q6P3R8 whole entry): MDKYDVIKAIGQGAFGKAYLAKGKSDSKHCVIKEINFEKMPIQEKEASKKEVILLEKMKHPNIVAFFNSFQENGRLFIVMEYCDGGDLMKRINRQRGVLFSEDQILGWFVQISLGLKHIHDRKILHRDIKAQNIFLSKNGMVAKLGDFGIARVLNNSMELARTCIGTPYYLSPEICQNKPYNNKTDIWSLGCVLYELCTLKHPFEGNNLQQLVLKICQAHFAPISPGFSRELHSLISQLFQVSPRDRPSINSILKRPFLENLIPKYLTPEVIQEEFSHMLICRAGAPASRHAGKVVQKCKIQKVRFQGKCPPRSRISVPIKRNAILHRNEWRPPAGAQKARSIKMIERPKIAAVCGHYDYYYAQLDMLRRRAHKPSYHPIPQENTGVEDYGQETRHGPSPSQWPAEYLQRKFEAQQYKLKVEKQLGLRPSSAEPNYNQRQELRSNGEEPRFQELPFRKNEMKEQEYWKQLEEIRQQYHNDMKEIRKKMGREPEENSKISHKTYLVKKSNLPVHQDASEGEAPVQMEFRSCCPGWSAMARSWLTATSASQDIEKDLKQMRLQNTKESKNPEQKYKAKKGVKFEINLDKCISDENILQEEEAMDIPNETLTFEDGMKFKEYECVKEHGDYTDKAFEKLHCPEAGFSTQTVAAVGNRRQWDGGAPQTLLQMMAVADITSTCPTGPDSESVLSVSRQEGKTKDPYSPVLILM

[32] = biological target: Serine/threonine-protein kinase OSR1 (Homo sapiens) (UniProt O95747); details: Compound concentration 1000.0 nM
[33] = biological target: Mitogen-activated protein kinase 12 (Homo sapiens) (UniProt P53778); details: Compound concentration 1000.0 nM
[34] = biological target: Serine/threonine-protein kinase RIO2 (Homo sapiens) (UniProt Q9BVS4); details: Compound concentration 1000.0 nM
[35] = biological target: Receptor-interacting serine/threonine-protein kinase 2 (Homo sapiens) (UniProt O43353); details: Compound concentration 1000.0 nM
[36] = biological target: Ribosomal protein S6 kinase alpha-5 (Homo sapiens) (UniProt O75582); details: Compound concentration 1000.0 nM
[37] = biological target: Ribosomal protein S6 kinase alpha-6 (Homo sapiens) (UniProt Q9UK32); details: Compound concentration 1000.0 nM
Chain of Ribosomal protein S6 kinase alpha-6 (Homo sapiens) (Q9UK32 whole entry): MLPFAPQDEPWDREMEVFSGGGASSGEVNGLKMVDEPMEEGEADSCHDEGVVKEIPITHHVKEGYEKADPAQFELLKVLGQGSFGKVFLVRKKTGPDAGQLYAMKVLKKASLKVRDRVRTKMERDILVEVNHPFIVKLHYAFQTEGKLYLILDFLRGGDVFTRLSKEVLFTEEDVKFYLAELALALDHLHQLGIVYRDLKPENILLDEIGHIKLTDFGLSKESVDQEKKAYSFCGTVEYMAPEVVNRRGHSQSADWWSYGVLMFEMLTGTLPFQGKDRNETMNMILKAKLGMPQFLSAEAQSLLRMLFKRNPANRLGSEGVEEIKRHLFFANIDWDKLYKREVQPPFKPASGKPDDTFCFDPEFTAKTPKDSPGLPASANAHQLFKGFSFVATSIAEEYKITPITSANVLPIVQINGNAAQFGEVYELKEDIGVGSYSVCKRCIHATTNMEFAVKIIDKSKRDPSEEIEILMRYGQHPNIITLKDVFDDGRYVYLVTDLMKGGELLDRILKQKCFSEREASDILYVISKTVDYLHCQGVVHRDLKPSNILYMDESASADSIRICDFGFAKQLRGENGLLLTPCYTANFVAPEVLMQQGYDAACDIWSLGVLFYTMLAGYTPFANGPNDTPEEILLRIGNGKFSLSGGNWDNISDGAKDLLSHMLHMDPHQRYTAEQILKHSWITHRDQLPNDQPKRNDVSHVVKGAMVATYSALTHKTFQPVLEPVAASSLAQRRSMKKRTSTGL

[38] = biological target: Ribosomal protein S6 kinase beta-1 (Homo sapiens) (UniProt P23443); details: Compound concentration 1000.0 nM
Chain of Ribosomal protein S6 kinase beta-1 (Homo sapiens) (P23443 whole entry, looked up): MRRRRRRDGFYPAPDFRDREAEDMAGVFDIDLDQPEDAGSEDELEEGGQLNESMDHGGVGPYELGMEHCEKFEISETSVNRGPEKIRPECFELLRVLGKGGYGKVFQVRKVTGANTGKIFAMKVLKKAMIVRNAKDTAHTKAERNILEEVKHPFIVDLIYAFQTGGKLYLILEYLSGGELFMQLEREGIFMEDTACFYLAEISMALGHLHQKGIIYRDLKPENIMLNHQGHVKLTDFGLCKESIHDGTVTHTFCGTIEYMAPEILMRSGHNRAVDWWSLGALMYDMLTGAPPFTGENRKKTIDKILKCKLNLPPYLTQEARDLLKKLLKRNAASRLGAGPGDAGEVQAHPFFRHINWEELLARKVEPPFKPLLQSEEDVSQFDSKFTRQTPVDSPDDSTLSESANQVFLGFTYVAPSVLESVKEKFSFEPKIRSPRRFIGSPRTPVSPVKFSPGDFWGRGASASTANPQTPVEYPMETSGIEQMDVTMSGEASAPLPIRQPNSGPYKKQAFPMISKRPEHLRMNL

[39] = biological target: Serine/threonine-protein kinase TAO1 (Homo sapiens) (UniProt Q7L7X3); details: Compound concentration 1000.0 nM
[40] = biological target: Testis-specific serine/threonine-protein kinase 1 (Homo sapiens) (UniProt Q9BXA7); details: Compound concentration 1000.0 nM
[41] = biological target: Testis-specific serine/threonine-protein kinase 3 (Homo sapiens) (UniProt Q96PN8); details: Compound concentration 1000.0 nM
[42] = biological target: Tyrosine-protein kinase TXK (Homo sapiens) (UniProt P42681); details: Compound concentration 1000.0 nM
[43] = biological target: Tyrosine-protein kinase Yes (Homo sapiens) (UniProt P07947); details: Compound concentration 1000.0 nM
[44] = biological target: 5-hydroxytryptamine receptor 2C (Homo sapiens) (UniProt P28335); details: Compound concentration 10.0 uM
[45] = biological target: D(3) dopamine receptor (Homo sapiens) (UniProt P35462); details: Compound concentration 10.0 uM

O=c1nc(-c2ccccn2)sc2ccccc12 [BTZO-1]
inactive: residual activity [1] 100% | residual activity [2] 96% | residual activity [3] 71% | residual activity [4] 82% | residual activity [5] 100% | residual activity [6] 92% | residual activity [7] 90% | residual activity [8] 84% | residual activity [9] 100% | residual activity [10] 88% | residual activity [11] 100% | residual activity [12] 76% | residual activity [13] 88% | residual activity [14] 92% | residual activity [15] 80% | residual activity [16] 100% | residual activity [17] 100% | residual activity [18] 100% | residual activity [19] 94% | residual activity [20] 100% | residual activity [21] 100% | residual activity [22] 100% | residual activity [23] 97% | residual activity [24] 86% | residual activity [25] 100% | residual activity [26] 98% | residual activity [27] 100% | residual activity [28] 100% | residual activity [29] 66% | residual activity [30] 100% | residual activity [31] 78% | residual activity [32] 100% | residual activity [33] 58% | residual activity [34] 94% | residual activity [35] 82% | residual activity [36] 88% | residual activity [37] 92% | residual activity [38] 100% | residual activity [39] 92% | residual activity [40] 100% | residual activity [41] 86% | residual activity [42] 81% | residual activity [43] 100% | inhibition [44] 12.2% | inhibition [45] 13.6%

O=C1NC(c2ccccn2)Sc2ccccc21 (stereo not given) [BTZO-4]
inactive: residual activity [1] 100% | residual activity [2] 75% | residual activity [3] 65% | residual activity [4] 100% | residual activity [5] 80% | residual activity [6] 91% | residual activity [7] 95% | residual activity [8] 71% | residual activity [9] 93% | residual activity [10] 88% | residual activity [11] 100% | residual activity [12] 72% | residual activity [13] 98% | residual activity [14] 100% | residual activity [15] 80% | residual activity [16] 86% | residual activity [17] 100% | residual activity [18] 100% | residual activity [19] 85% | residual activity [20] 86% | residual activity [21] 100% | residual activity [22] 81% | residual activity [23] 100% | residual activity [24] 89% | residual activity [25] 100% | residual activity [26] 72% | residual activity [27] 96% | residual activity [28] 100% | residual activity [29] 58% | residual activity [30] 100% | residual activity [31] 72% | residual activity [32] 100% | residual activity [33] 51% | residual activity [34] 83% | residual activity [35] 100% | residual activity [36] 87% | residual activity [37] 81% | residual activity [38] 75% | residual activity [39] 96% | residual activity [40] 66% | residual activity [41] 88% | residual activity [42] 100% | residual activity [43] 100% | inhibition [44] 3.98% | inhibition [45] 27.8%
